Where two headings read alike, the source gives them in different places.
Legend:
Type in all cases: in vivo
[1] = test system: wheat (Triticum aestivum); test: Test A greenhouse herbicide test, pre- and postemergence; details: Triticum aestivum, post-emergence, 240 h, Postemergence; for plant injury at 125 g/ha: 125 g ai/ha, read-out: Plant response rating, Wheat; for plant injury at 500 g/ha: 500 g ai/ha, 0 to 100 scale, 0 is no effect, 100 is complete control, read-out: Wheat plant response rating
How it was run: (§1)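 Seeds sown in loam–sand blend got a preemergence directed soil spray of compound in non-phytotoxic solvent with surfactant. Postemergence treatment was given at 2–10 cm, one- to two-leaf stage. After ~10 d in greenhouse, injury was rated visually vs untreated controls, 0 (no effect) to 100 (complete control).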

[2] = test system: barnyardgrass (Echinochloa crus-galli); test: as above; details: Echinochloa crus-galli, 240 h; for pest or weed control at 125 g/ha: 125 g ai/ha; for pest or weed control at 500 g/ha: 500 g ai/ha, 0 to 100 scale
How it was run: as §1

[3] = test system: pigweed (Amaranthus retroflexus); test: as above; details: Amaranthus retroflexus, 240 h; for pest or weed control at 125 g/ha: 125 g ai/ha; for pest or weed control at 500 g/ha: 500 g ai/ha, 0 to 100 scale
How it was run: as §1

[4] = test system: ragweed (common ragweed, Ambrosia elatior); test: as above; details: Ambrosia artemisiifolia, 240 h; for pest or weed control at 125 g/ha: 125 g ai/ha; for pest or weed control at 500 g/ha: 500 g ai/ha, 0 to 100 scale
How it was run: as §1

kochia (Kochia scoparia) = test: as above; details: Bassia scoparia, 240 h; for pest or weed control at 125 g/ha: 125 g ai/ha; for pest or weed control at 500 g/ha: 500 g ai/ha, 0 to 100 scale
How it was run: as §1

corn (Zea mays) = test: as above; details: Zea mays, post-emergence, 240 h, Postemergence; for Corn plant response rating (crop injury, 0 = no effect, 100 = complete kill) at 125 g/ha: 125 g ai/ha; for plant injury at 500 g/ha: 500 g ai/ha, 0 to 100 scale, 0 is no effect, 100 is complete control, read-out: Corn plant response rating
How it was run: as §1

[5] = test system: blackgrass (Alopecurus myosuroides); test: Test A greenhouse herbicide test, postemergence; details: Alopecurus myosuroides, post-emergence, 240 h; for pest or weed control at 125 g/ha: 125 g ai/ha, read-out: Plant response rating, Blackgrass; for pest or weed control at 500 g/ha: 500 g ai/ha, 0 to 100 scale, 0 is no effect, 100 is complete control, read-out: Blackgrass plant response rating
How it was run: (§2)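 Plants grown in loam soil/sand blend pots were treated postemergence at 2 to 10 cm height, one- to two-leaf stage, with formulated test chemicals. After approximately 10 d in a greenhouse, injury was rated visually against untreated controls on a 0 to 100 scale (0 no effect, 100 complete control).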

[6] = test system: galium (catchweed bedstraw, Galium aparine); test: Test A greenhouse herbicide test, postemergence; details: Galium, post-emergence, 240 h; for pest or weed control at 125 g/ha: 125 g ai/ha, read-out: Plant response rating, Galium; for pest or weed control at 500 g/ha: 500 g ai/ha, 0 to 100 scale, 0 is no effect, 100 is complete control, read-out: Galium plant response rating
How it was run: as §2

[7] = visual rating after approx. 10 d, 0 to 100 scale (0 no effect, 100 complete control)
[8] = post-emergence, Postemergence, visual rating after approx. 10 d, 0 to 100 scale (0 no effect, 100 complete control), read-out: Plant response rating, Barnyardgrass
[9] = post-emergence, Postemergence, 0 is no effect, 100 is complete control, read-out: Barnyardgrass plant response rating
[10] = pre-emergence, Preemergence, 0 to 100 scale where 0 is no effect and 100 is complete control, read-out: Barnyardgrass plant response rating
[11] = pre-emergence, Preemergence, 0 no effect, 100 complete control, read-out: Plant response rating, Barnyardgrass
[12] = post-emergence, Postemergence, visual rating after approx. 10 d, 0 to 100 scale (0 no effect, 100 complete control), read-out: Plant response rating, Pigweed
[13] = post-emergence, Postemergence, 0 is no effect, 100 is complete control, read-out: Pigweed plant response rating
[14] = pre-emergence, Preemergence, 0 to 100 scale where 0 is no effect and 100 is complete control, read-out: Pigweed plant response rating
[15] = pre-emergence, Preemergence, 0 no effect, 100 complete control, read-out: Plant response rating, Pigweed
[16] = post-emergence, Postemergence, visual rating after approx. 10 d, 0 to 100 scale (0 no effect, 100 complete control), read-out: Plant response rating, Ragweed
[17] = post-emergence, Postemergence, 0 is no effect, 100 is complete control, read-out: Ragweed plant response rating
[18] = pre-emergence, Preemergence, 0 to 100 scale where 0 is no effect and 100 is complete control, read-out: Ragweed plant response rating
[19] = pre-emergence, Preemergence, 0 no effect, 100 complete control, read-out: Plant response rating, Ragweed
[20] = post-emergence, Postemergence, visual rating after approx. 10 d, 0 to 100 scale (0 no effect, 100 complete control), read-out: Plant response rating, Kochia
[21] = post-emergence, Postemergence, 0 is no effect, 100 is complete control, read-out: Kochia plant response rating
[22] = pre-emergence, Preemergence, 0 to 100 scale where 0 is no effect and 100 is complete control, read-out: Kochia plant response rating
[23] = pre-emergence, Preemergence, 0 no effect, 100 complete control, read-out: Plant response rating, Kochia
[24] = 0 to 100 scale where 0 is no effect and 100 is complete control

Structure (SMILES) | plant injury at 125 g/ha [1, 7] [%] | plant injury at 500 g/ha [1] [%] | pest or weed control at 125 g/ha [2, 8] [%] | pest or weed control at 500 g/ha [2, 9] [%] | pest or weed control at 125 g/ha [2, 10] [%] | pest or weed control at 500 g/ha [2, 11] [%] | pest or weed control at 125 g/ha [3, 12] [%] | pest or weed control at 500 g/ha [3, 13] [%] | pest or weed control at 125 g/ha [3, 14] [%] | pest or weed control at 500 g/ha [3, 15] [%] | pest or weed control at 125 g/ha [4, 16] [%] | pest or weed control at 500 g/ha [4, 17] [%] | pest or weed control at 125 g/ha [4, 18] [%] | pest or weed control at 500 g/ha [4, 19] [%] | pest or weed control at 500 g/ha (kochia (Kochia scoparia); [21]) [%] | pest or weed control at 125 g/ha (kochia (Kochia scoparia); [22]) [%] | pest or weed control at 500 g/ha (kochia (Kochia scoparia); [23]) [%] | plant injury at 500 g/ha (corn (Zea mays)) [%] | pest or weed control at 500 g/ha [5] [%] | pest or weed control at 500 g/ha [6] [%] | other results
Cc1cc(C)c2oc(C)c(-c3c(O)c(C)nn(C)c3=O)c2c1 [Compound 12, 5-hydroxy-2,6-dimethyl-4-(2,5,7-trimethyl-3-benzofuranyl)-3(2H)-pyridazinone] | 0 | 0 | 0 | 40 | 20 | 80 | 30 | 50 | 10 | 60 | 10 | 70 | 0 | 30 | 60 | 0 | 10 | 0 | 50 | 90 | pest or weed control at 125 g/ha (kochia (Kochia scoparia); [20]): 0%; Corn plant response rating (crop injury, 0 = no effect, 100 = complete kill) at 125 g/ha (corn (Zea mays); [7]): 0%; pest or weed control at 125 g/ha [5, 7]: 20%; pest or weed control at 125 g/ha [6, 7]: 60%
CC(=O)Oc1c(C)nn(C)c(=O)c1-c1c(C)oc2c(C)cccc12 [Compound 15, 5-(acetyloxy)-4-(2,7-dimethyl-3-benzofuranyl)-2,6-dimethyl-3(2H)-pyridazinone] | 0 | 0 | 70 | 90 | 20 | 90 | 0 | 0 | 0 | 0 | 50 | 50 | 0 | 30 | 50 | 0 | 0 | 20 | 50 | 90 | pest or weed control at 125 g/ha (kochia (Kochia scoparia); [20]): 50%; Corn plant response rating (crop injury, 0 = no effect, 100 = complete kill) at 125 g/ha (corn (Zea mays); [7]): 0%; pest or weed control at 125 g/ha [5, 7]: 0%; pest or weed control at 125 g/ha [6, 7]: 70%
CCc1sc2cc(C)cc(C)c2c1-c1c(O)c(C)nn(C)c1=O [Compound 19, 4-(2-ethyl-4,6-dimethylbenzo[b]thien-3-yl)-5-hydroxy-2,6-dimethyl-3(2H)-pyridazinone] | 0 | 0 | 20 | 80 | 30 | 90 | 0 | 0 | 0 | 0 | 0 | 0 | 0 | 20 | 0 | 0 | 0 | 0 | 0 | 80 | pest or weed control at 125 g/ha (kochia (Kochia scoparia); [20]): 0%; Corn plant response rating (crop injury, 0 = no effect, 100 = complete kill) at 125 g/ha (corn (Zea mays); [7]): 0%; pest or weed control at 125 g/ha [5, 7]: 0%; pest or weed control at 125 g/ha [6, 7]: 30%
COc1nn(C)c(=O)c(-c2c(C)c(C)cc3ccccc23)c1O [Compound 46, 4-(2,3-dimethyl-1-naphthalenyl)-5-hydroxy-6-methoxy-2-methyl-3(2H)-pyridazinone] | – | 20 | – | 80 | 20 | 60 | – | 90 | 30 | 100 | – | 90 | 50 | 80 | 40 | 30 | 30 | 0 | 70 | 90 | plant injury at 125 g/ha [1, 24]: 0%; pest or weed control at 125 g/ha ([2]; post-emergence, Postemergence, 0 to 100 scale where 0 is no effect and 100 is complete control, read-out: Plant response rating, Barnyardgrass): 20%; pest or weed control at 125 g/ha ([3]; post-emergence, Postemergence, 0 to 100 scale where 0 is no effect and 100 is complete control, read-out: Plant response rating, Pigweed): 70%; pest or weed control at 125 g/ha ([4]; post-emergence, Postemergence, 0 to 100 scale where 0 is no effect and 100 is complete control, read-out: Plant response rating, Ragweed): 80%; pest or weed control at 125 g/ha (kochia (Kochia scoparia); post-emergence, Postemergence, 0 to 100 scale where 0 is no effect and 100 is complete control, read-out: Plant response rating, Kochia): 30%; Corn plant response rating (crop injury, 0 = no effect, 100 = complete kill) at 125 g/ha (corn (Zea mays); [24]): 0%; pest or weed control at 125 g/ha [5, 24]: 20%; pest or weed control at 125 g/ha [6, 24]: 70%

— patent US10597388B2, “Pyridazinone herbicides” (FMC CORPORATION, priority 2014, dated 2020)
